Usually AUC stands for the area under the concentration-time curve, a measure of exposure. Read a high AUC as high exposure. A word on the Tmax: it is the time at which the peak concentration occurs. A word on the Cmax: it is the maximum level reached in the sampled fluid or tissue.

The values that follow come from patent US9422238B2, “ICMT inhibitors” (National University of Singapore, priority 2012, dated 2016).

Each structure is given as a SMILES string. Entries after “also recorded” stand apart in the source; their conditions may differ. Where two headings read alike, the source gives them in different places. A value given as a limit tells only on which side of the number the result lay.

One data set concerns HepG2 xenografts. Nature of the data set: In vivo activity on xenograft bearing mice. The note with it: for deaths during the treatment period: 8 mice. On the procedure: HepG2 cells were grown in DMEM and 10% FBS until near confluence and then harvested after trypsinization. […] The vehicle was ethanol-PEG400-dextrose solution as described in 5.2.1. The animals were monitored daily for changes in their general appearance, weight and tumor volume. Tumor volume was calculated using the formula: […]. Length (L) and width (W) of the tumor were measured with a digital vernier caliper and reported to 2 decimal places. The shorter of the 2 distances was taken as width. The mice were monitored—for 25-days after which they were euthanized with CO2, the tumors removed by dissection and weighed.

In data set [1] the test system is PC3 cells. Nature of the data set: In vitro scratch assay (cell migration). It counts as cell-based, human. The note with it: PC3, 24 h. On the procedure: PC3 cells were seeded at 100 000 cells per well in a 6-well plate in media (DMEM, high glucose, 10% FBS, 50 μg/mL penicillin, 50 μg/mL streptomycin) and incubated (37° C., 5% CO2) for 36 hours until confluent. The cell monolayer was scraped in a straight line with a 1 mL pipette tip to create a “scratch” which was also marked at the bottom of the plate with a marker pen. The media was removed from the well which was then washed with PBS. Test compound in 2 mL DMEM (high glucose, 5% FBS) was added to each well (DMSO concentration of 0.05% v/v per well) and the plates were incubated at 37° C., 5% CO2. Control wells with PC3 monolayers were similarly treated. Scratches of approximately the same size were made on control and treated wells. Photographs of the scratched surfaces in wells were taken with a microscope fitted with a camera at the start of incubation and after 24 h. Magnification was kept constant at 40× for all acquired images. These were further analyzed by downloading the images into a Powerpoint® file and measuring (on-screen) the distances between one side of the scratch and the other. For each “scratch”, four or five distances were measured across the length of the scratch in the initial (0 h) image and these same distances were monitored after 24 h. Each compound was tested at 3 concentrations with 3 repeats made for each concentration.

The nature of data set [2]: Pharmacokinetic study, IP. It counts as in vivo, mice. The following applies: for detection in plasma at late time points: IP; for half-life / AUC / Tmax / Cmax: female, mouse, plasma; for half-life: Balb/c.
The next data set deals with MDA MB 231 cells. Nature of the data set: Western blot of autophagy marker LC3-II. It counts as cell-based, human. The following applies: MDA MB 231, 24 h and 48 h. On the procedure:
(§1) MDA MB231, PC3 and HepG2 cells were seeded at 65 000 cells/mL per well in […] with DMEM (high glucose, supplemented with 10% FBS, 50 μg/mL penicillin, 50 μg/mL streptomycin) as media. Plates were incubated (24 h, 37° C., 5% CO2) for cells to attach and then treated with test compound (prepared in same media but with 5% FBS) for 24 h or 48 h. Final volume of DMSO per well was kept at 0.05% v/v. After the specified time, the supernatant was removed from the well by pipetting, the cell pellet was trypsinized, and pelleted by centrifugation (150 g, 5 min) and stored in −20° C. Samples were thawed and cells lysed by adding RIPA (radioimmunoprecipitation assay lysis buffer, Thermo Scientific, Rockland, Ill.) (50 μL), kept in ice for 30 min and sonicated for 1 min in an ice bath. Samples were centrifuged (13 000 g, 5 min, 4° C.) to remove cell debris. The supernatant was stored as aliquots at −80° C. and used when required. At the time of use, samples were thawed and protein content determined using the BCA® Protein Assay reagent (Thermo Scientific, Rockland, Ill.). The volume of the lysate was adjusted with deionized water to normalize protein content to 10-20 μg per mL. To this was added Laemmli buffer (4×) and heated to 100° C. for 5 minutes to denature the protein. The samples were resolved by 12% SDS-PAGE gel electrophoresis at 100V for 90 min. The resolved proteins were transferred to polyvinylidene difluoride (PVDF) membranes (Bio-Rad, Singapore) using transfer buffer at 100V for 120 min. Membranes were then treated with 5% blocking buffer (5% non-fat milk and 0.1% Tween-20 in PBS) and probed with the specific antibody (GAPDH, LC3) by incubating the membranes in blocking buffer containing the antibody at 4° C. overnight. After washing the membranes in PBS containing 0.1% Tween 20 (PBST), the membranes were probed with secondary antibodies (horseradish peroxidase anti mouse IgG, Pierce, USA) in blocking buffer at room temperature for 1 h. They were then washed with PBST and developed using an enhanced chemiluminescence procedure (Amersham ECL Advanced Western Blotting Detection Kit, GE, Healthcare, UK). Immunoblots were viewed using the ImageQuant® RT-ECL imager (GE Healthcare) and the image captured with the ImageQuant® TL software. Antibodies were obtained from the following sources: GAPDH (Cell signaling technology, USA), LC3 (Abgent, USA). Test compound was evaluated at 3 concentrations with 2 repeats for each concentration.
For orientation: A western blot detects proteins with antibodies after separation by electrophoresis.

For another data set, the system named is HepG2 cells. Kind of data set: Western blot of autophagy marker LC3-II. It counts as cell-based, human. The following applies: HepG2, 24 h and 48 h. On the procedure:
as §1

Data set [3] has as its system PC3 cells. Nature of the data set: Western blot of autophagy marker LC3-II. It counts as cell-based, human. The following applies: PC3, 24 h and 48 h. On the procedure:
as §1

Setting [4] is: Balb/c mice, 20 mg/kg IP, 20 mg/kg.

`CCCCCCCCn1cc(CN(CC)CC)c2cc(-c3cnc(N)nc3)ccc21` [Compound 8-12, 5-(3-Diethylaminomethyl-1-octyl-1H-indol-5-yl)-pyrimidin-2-ylamine]: the “deaths during the treatment period” value in the data set with HepG2 xenografts (15 mg/kg IP daily, 25 days) is on record as “one animal died”; with HepG2 xenografts (30 mg/kg IP daily, 25 days), “Three deaths”. In addition, the “reduction in relative tumor volume” value in the data set with HepG2 xenografts (15 and 30 mg/kg IP daily, p<0.05 vs control) is “Significant reduction in tumor volume was evident from Day 5 onwards for animals receiving 30 mg/kg and Day 7 onwards for animals receiving 15 mg/kg; also recorded: Reduction in tumor volume was significant from Day 5 and Day 7 onwards for animals dosed with 30 mg/kg and 15 mg/kg respectively”. The “weight of excised tumors vs control” value in the data set on HepG2 xenografts (after 25 days) is reported as “significant weight loss compared to control”. In the data set on PC3 cells [1], the “gap closure in scratch assay” value was “the gap remained “open” at 2 and 2.5 μM but closed to some extent at a lower concentration of 1.5 μM”. The “time to peak concentration in plasma” value in data set [2] (10 mg/kg or 25 mg/kg IP) is reported as “within an hour”. In addition, the “Clearance” value in data set [2] (Balb/c mice, 10 mg/kg IP) worked out at 6.67 mL/min/kg; in data set [2] (Balb/c mice, 25 mg/kg IP), 10.1 mL/min/kg. Moreover, the “Volume of Distribution” value in data set [2] (Balb/c mice, 25 mg/kg IP) came out at 1.185 L/kg. Further, the “detection in plasma at late time points” value in data set [2] (Balb/c mice) was “not detected after 24 h and 48 h”. The half-life in data set [2] (intraperitoneal, summary, treated mice, read-out: half life) is less than 1 h; in data set [2] (ip, 10 mg/kg or 25 mg/kg IP, estimated, read-out: half life), less than 3 h; in data set [2] (ip, 10 mg/kg, Balb/c mice, 10 mg/kg IP, read-out: T1/2 (converted)), 1.25 h; in data set [2] (ip, 25 mg/kg, Balb/c mice, 25 mg/kg IP, read-out: T1/2 (converted)) it was 1.36 h. The AUC turned out to be 24.6 µg·h/mL in data set [2] (Balb/c mice, 10 mg/kg IP) and 40.8 µg·h/mL in data set [2] (Balb/c mice, 25 mg/kg IP). Moreover, the Tmax in data set [2] (Balb/c mice, 10 mg/kg IP) worked out at 0.25 h; in data set [2] (Balb/c mice, 25 mg/kg IP), 0.75 h. Also, the Cmax in data set [2] (Balb/c mice, 10 mg/kg IP) was determined as 17.9 µg/mL; in data set [2] (Balb/c mice, 25 mg/kg IP), 17.4 µg/mL. The figures for the “LC3-II content (immunoblot)” value with MDA MB 231 cells, with HepG2 cells and in the data set on PC3 cells [3] were “increased the content of LC3-II”, “LC3-II bands were detected in HepG2 cells treated only with 0.5 μM but not 0.25 μM” and “increased the content of LC3-II”, respectively.
As to `CCCCCCCCn1cc(CC(N)=O)c2cc(-c3cccc(C)c3)ccc21` [Cysmethynil, 2-[5-(3-methylphenyl)-1-octyl-1H-indolo-3-yl]acetamide, reference compound], the body weight change entry in the data set on HepG2 xenografts (xenograft-bearing mice, 25 days) was “Weight loss was observed up to Day 11”. Besides, the “gap closure in scratch assay” value in the data set on PC3 cells [1] is “the gap closed to some degree in the presence of 17.5 and 20 μM cysmethynil after 24 h, but remained open in cells treated with 22.5 μM cysmethynil”. Besides, the “Clearance” value stood at 0.395 mL/min/kg in data set [2] (Balb/c mice, 20 mg/kg IP) and 0.217 mL/min/kg in data set [2] (Balb/c mice, 100 mg/kg IP). For the same compound, the “T1/2” value in data set [2] (setting [4]) came to 1.55 h. For the same compound, the “Volume of Distribution” value was found to be 0.0529 L/kg in data set [2] (setting [4]); 0.053 L/kg in data set [2] (Balb/c mice, 20 mg/kg IP, listed as cysmethynil, 20 mg/kg); 0.0799 L/kg in data set [2] (Balb/c mice, 100 mg/kg IP). For the same compound, the “detection in plasma at late time points” value in data set [2] (Balb/c mice) was “could not be detected in plasma beyond this time”. Moreover, the half-life is 1.6 h in data set [2] (ip, 20 mg/kg, Balb/c mice, 20 mg/kg IP, read-out: T1/2 (converted)) and 4.3 h in data set [2] (ip, 100 mg/kg, Balb/c mice, 100 mg/kg IP, read-out: T1/2 (converted)). The AUC in data set [2] (Balb/c mice, 20 mg/kg IP) is 843 µg·h/mL; in data set [2] (Balb/c mice, 100 mg/kg IP) it was 7690 µg·h/mL. Further, the Tmax in data set [2] (Balb/c mice, 20 mg/kg IP) is 0.75 h; in data set [2] (Balb/c mice, 100 mg/kg IP), 0.75 h. Further, the Cmax in data set [2] (Balb/c mice, 20 mg/kg IP) was found to be 210 µg/mL; in data set [2] (Balb/c mice, 100 mg/kg IP), 1160 µg/mL. For the same compound, the “LC3-II content (immunoblot)” value was “LC3-II accumulation was evident in MDA MB 231 cells treated with cysmethynil at 20 and 22.5 μM, but not at 17.5 μM” in the data set with MDA MB 231 cells; “LC3II accumulation was evident after 48 hours but not 24 h” with HepG2 cells; “negligible LC3II were observed” in the data set with PC3 cells [3].
